According to ChEMBL document CHEMBL1134488, “Potent reversible inhibitors of the protein tyrosine phosphatase CD45” (J Med Chem, 2001):
Where a SMILES comes first, the peptide text is derived from it. The star is where a group is joined. Phenanthrenequinone2carbonyl = O=C1C(=O)c2cc(C(=O)*)ccc2-c2ccccc21; X1 = O=C1C(=O)c2cc(N*)ccc2-c2ccccc21

Legend:
T-cell [1] = assay: Cytotoxicity measured against human T-cells; type: functional
T-cell [2] = assay: In vitro inhibition of human T-cell proliferation; type: functional, cell-based

O=C1C(=O)c2ncccc2-c2ccccc21
CC50 (T-cell [1]): 7 µM | IC50 (T-cell [2]): 0.4 µM

O=C1C=C(c2cc(Cl)cc(Cl)c2)c2ccccc2C1=O
CC50 (T-cell [1]): 5.5 µM | IC50 (T-cell [2]): 0.3 µM

O=C1C=C(c2c(-c3ccccc3)[nH]c3ccccc23)c2ccccc2C1=O
CC50 (T-cell [1]): 16 µM | IC50 (T-cell [2]): 2.2 µM

CCOc1ccccc1-c1ccc2c(c1)C(=O)C(=O)c1ccccc1-2
CC50 (T-cell [1]): > 30 µM | IC50 (T-cell [2]): 0.7 µM

O=C1C(=O)c2cc([N+](=O)[O-])ccc2-c2ccc([N+](=O)[O-])cc21
CC50 (T-cell [1]): 8 µM | IC50 (T-cell [2]): 0.5 µM

O=C(O)c1ccc2c(c1)C(=O)C(=O)c1ccccc1-2
CC50 (T-cell [1]): > 30 µM | IC50 (T-cell [2]): > 30 µM

O=C1C=C(c2ccccc2Cl)c2ccccc2C1=O
CC50 (T-cell [1]): 12.4 µM | IC50 (T-cell [2]): 0.3 µM

O=C(O)CNC(=O)c1ccc2c(c1)-c1ccccc1C(=O)C2=O
CC50 (T-cell [1]): > 30 µM | IC50 (T-cell [2]): 6.5 µM

O=C(O)c1ccc2c(c1)-c1ccccc1C(=O)C2=O
IC50 (T-cell [2]): > 30 µM

O=C1C(=O)c2cc([N+](=O)[O-])ccc2-c2ccccc21
CC50 (T-cell [1]): 10 µM | IC50 (T-cell [2]): 1.6 µM

Nc1cccc2c1-c1ccccc1C(=O)C2=O
CC50 (T-cell [1]): 9 µM | IC50 (T-cell [2]): 0.2 µM

Cn1cc(C2=CC(=O)C(=O)c3ccccc32)c2ccccc21
CC50 (T-cell [1]): > 30 µM | IC50 (T-cell [2]): 1.5 µM

O=C1C(=O)c2cccc([N+](=O)[O-])c2-c2ccccc21
CC50 (T-cell [1]): 10 µM

COC(=O)CCCC(=O)Nc1ccc2c(c1)-c1ccccc1C(=O)C2=O
CC50 (T-cell [1]): 9 µM | IC50 (T-cell [2]): 1.6 µM

O=C1C=C(c2cccc([N+](=O)[O-])c2)c2ccccc2C1=O
CC50 (T-cell [1]): 4 µM | IC50 (T-cell [2]): 0.4 µM

CCOC1=CC(=O)C(=O)c2ccccc21
CC50 (T-cell [1]): > 30 µM | IC50 (T-cell [2]): > 30 µM

O=C1C(=O)c2ccc([N+](=O)[O-])cc2-c2ccccc21
CC50 (T-cell [1]): 2.8 µM | IC50 (T-cell [2]): 0.2 µM

C=CCOC1=CC(=O)C(=O)c2ccccc21
CC50 (T-cell [1]): > 30 µM | IC50 (T-cell [2]): > 30 µM

O=C1C=Cc2ccc(O)cc2C1=O
CC50 (T-cell [1]): > 30 µM | IC50 (T-cell [2]): > 30 µM

CCCC(=O)Nc1ccc2c(c1)C(=O)C(=O)c1ccccc1-2
CC50 (T-cell [1]): 8.2 µM | IC50 (T-cell [2]): 1.1 µM

O=C1C(=O)c2ccc(NC(=O)c3ccccc3C(F)(F)F)cc2-c2ccccc21
CC50 (T-cell [1]): 14 µM

O=C1C=C(c2ccccc2)c2ccccc2C1=O
CC50 (T-cell [1]): 12 µM | IC50 (T-cell [2]): 0.2 µM

O=C1C=Cc2cc(C(=O)c3ccccc3)ccc2C1=O
CC50 (T-cell [1]): > 30 µM | IC50 (T-cell [2]): 11 µM

O=C1C(=O)c2cc(-c3ccsc3)ccc2-c2ccccc21
CC50 (T-cell [1]): 7.3 µM | IC50 (T-cell [2]): 1.7 µM

COC(=O)c1ccc2c(c1)C=CC(=O)C2=O
CC50 (T-cell [1]): > 30 µM | IC50 (T-cell [2]): 7.1 µM

COC(=O)c1cccc2c1C=CC(=O)C2=O
CC50 (T-cell [1]): > 30 µM

COC(=O)CCC(=O)Nc1ccc2c(c1)-c1ccccc1C(=O)C2=O
CC50 (T-cell [1]): 18 µM

Nc1ccc2c(c1)-c1ccccc1C(=O)C2=O
CC50 (T-cell [1]): 17 µM

O=C1C(=O)c2cc(-c3ccc4c(c3)OCO4)ccc2-c2ccccc21
CC50 (T-cell [1]): 5 µM | IC50 (T-cell [2]): 1.7 µM

Nc1cccc2c1C(=O)C(=O)c1ccccc1-2
CC50 (T-cell [1]): 9.6 µM | IC50 (T-cell [2]): 7.8 µM

O=C1C=C(Br)c2ccccc2C1=O
CC50 (T-cell [1]): > 30 µM | IC50 (T-cell [2]): 22 µM

O=C1C(=O)c2ccsc2-c2ccccc21
CC50 (T-cell [1]): 3.5 µM

Cc1ccc(S(=O)(=O)Nc2ccc3c(c2)C(=O)C(=O)c2ccccc2-3)cc1
CC50 (T-cell [1]): > 30 µM | IC50 (T-cell [2]): 6.4 µM

Cc1ccc(S(=O)(=O)N(c2ccc3c(c2)C(=O)C(=O)c2ccccc2-3)S(=O)(=O)c2ccc(C)cc2)cc1
CC50 (T-cell [1]): 5.3 µM

O=C1C=C(c2ccc(Br)cc2)c2ccccc2C1=O
CC50 (T-cell [1]): 3 µM | IC50 (T-cell [2]): 0.2 µM

CC(=O)N[C@@H](C)C(=O)N[C@H](C(=O)N[C@@H](CCC(=O)O)C(=O)NCC(=O)N[C@@H](CCC(N)=O)C(=O)N[C@@H](CC(=O)Nc1ccc2c(c1)C(=O)C(=O)c1ccccc1-2)C(=O)O)[C@@H](C)O (Ac-ATEGQD(X1)-OH)
IC50 (T-cell [2]): 21.4 µM

CC(=O)N[C@@H](Cc1ccccc1)C(=O)N[C@H](C(=O)N[C@@H](C)C(=O)N[C@H](C(=O)N[C@@H](CCC(=O)O)C(=O)NCC(=O)N[C@@H](CCC(N)=O)C(=O)N[C@@H](CC(=O)Nc1ccc2c(c1)C(=O)C(=O)c1ccccc1-2)C(=O)O)[C@@H](C)O)[C@@H](C)O (Ac-FTATEGQD(X1)-OH)
IC50 (T-cell [2]): > 30 µM

CC(=O)N[C@H](C(=O)N[C@@H](C)C(=O)N[C@H](C(=O)N[C@@H](CCC(=O)O)C(=O)NCC(=O)N[C@@H](CCC(N)=O)C(=O)N[C@@H](CC(=O)Nc1ccc2c(c1)C(=O)C(=O)c1ccccc1-2)C(=O)O)[C@@H](C)O)[C@@H](C)O (Ac-TATEGQD(X1)-OH)
IC50 (T-cell [2]): 23 µM

O=C(O)CC[C@H](NC(=O)c1ccc2c(c1)C(=O)C(=O)c1ccccc1-2)C(=O)N[C@@H](CCC(=O)O)C(=O)N1CCC[C@H]1C(=O)N[C@@H](CCC(=O)O)C(=O)NCC(=O)O (Phenanthrenequinone2carbonyl-EEPEG-OH)
CC50 (T-cell [1]): > 30 µM | IC50 (T-cell [2]): 14.2 µM

N=C(N)NCCC[C@H](NC(=O)[C@@H]1CCCN1C(=O)[C@H](CCC(=O)O)NC(=O)[C@H](CCC(=O)O)NC(=O)c1ccc2c(c1)C(=O)C(=O)c1ccccc1-2)C(=O)NCC(=O)O (Phenanthrenequinone2carbonyl-EEPRG-OH)
CC50 (T-cell [1]): > 30 µM | IC50 (T-cell [2]): 16 µM

O=C(O)CC[C@H](NC(=O)c1ccc2c(c1)C(=O)C(=O)c1ccccc1-2)C(=O)NCC(=O)N1CCC[C@H]1C(=O)N[C@@H](CCC(=O)O)C(=O)NCC(=O)O (Phenanthrenequinone2carbonyl-EGPEG-OH)
CC50 (T-cell [1]): > 30 µM | IC50 (T-cell [2]): 8.8 µM

N=C(N)NCCC[C@H](NC(=O)[C@@H]1CCCN1C(=O)CNC(=O)[C@H](CCC(=O)O)NC(=O)c1ccc2c(c1)C(=O)C(=O)c1ccccc1-2)C(=O)NCC(=O)O (Phenanthrenequinone2carbonyl-EGPRG-OH)
CC50 (T-cell [1]): > 30 µM | IC50 (T-cell [2]): 23 µM

N=C(N)NCCC[C@H](NC(=O)[C@H](CCC(=O)O)NC(=O)c1ccc2c(c1)C(=O)C(=O)c1ccccc1-2)C(=O)N1CCC[C@H]1C(=O)N[C@@H](CCC(=O)O)C(=O)NCC(=O)O (Phenanthrenequinone2carbonyl-ERPEG-OH)
CC50 (T-cell [1]): > 30 µM | IC50 (T-cell [2]): 3 µM

N=C(N)NCCC[C@H](NC(=O)[C@@H]1CCCN1C(=O)[C@H](CCCNC(=N)N)NC(=O)[C@H](CCC(=O)O)NC(=O)c1ccc2c(c1)C(=O)C(=O)c1ccccc1-2)C(=O)NCC(=O)O (Phenanthrenequinone2carbonyl-ERPRG-OH)
CC50 (T-cell [1]): > 30 µM | IC50 (T-cell [2]): 19 µM

O=C(O)CC[C@H](NC(=O)[C@@H]1CCCN1C(=O)[C@H](CCC(=O)O)NC(=O)CNC(=O)c1ccc2c(c1)C(=O)C(=O)c1ccccc1-2)C(=O)NCC(=O)O (Phenanthrenequinone2carbonyl-GEPEG-OH)
CC50 (T-cell [1]): > 30 µM | IC50 (T-cell [2]): 9 µM

N=C(N)NCCC[C@H](NC(=O)[C@@H]1CCCN1C(=O)[C@H](CCC(=O)O)NC(=O)CNC(=O)c1ccc2c(c1)C(=O)C(=O)c1ccccc1-2)C(=O)NCC(=O)O (Phenanthrenequinone2carbonyl-GEPRG-OH)
CC50 (T-cell [1]): > 30 µM | IC50 (T-cell [2]): 20 µM

O=C(O)CC[C@H](NC(=O)[C@@H]1CCCN1C(=O)CNC(=O)CNC(=O)c1ccc2c(c1)C(=O)C(=O)c1ccccc1-2)C(=O)NCC(=O)O (Phenanthrenequinone2carbonyl-GGPEG-OH)
CC50 (T-cell [1]): > 30 µM | IC50 (T-cell [2]): 19.3 µM

N=C(N)NCCC[C@H](NC(=O)[C@@H]1CCCN1C(=O)CNC(=O)CNC(=O)c1ccc2c(c1)C(=O)C(=O)c1ccccc1-2)C(=O)NCC(=O)O (Phenanthrenequinone2carbonyl-GGPRG-OH)
CC50 (T-cell [1]): > 30 µM | IC50 (T-cell [2]): 16 µM

N=C(N)NCCC[C@H](NC(=O)CNC(=O)c1ccc2c(c1)C(=O)C(=O)c1ccccc1-2)C(=O)N1CCC[C@H]1C(=O)N[C@@H](CCC(=O)O)C(=O)NCC(=O)O (Phenanthrenequinone2carbonyl-GRPEG-OH)
CC50 (T-cell [1]): > 30 µM | IC50 (T-cell [2]): 5.5 µM

N=C(N)NCCC[C@H](NC(=O)[C@@H]1CCCN1C(=O)[C@H](CCCNC(=N)N)NC(=O)CNC(=O)c1ccc2c(c1)C(=O)C(=O)c1ccccc1-2)C(=O)NCC(=O)O (Phenanthrenequinone2carbonyl-GRPRG-OH)
CC50 (T-cell [1]): > 30 µM | IC50 (T-cell [2]): > 30 µM

N=C(N)NCCC[C@H](NC(=O)c1ccc2c(c1)C(=O)C(=O)c1ccccc1-2)C(=O)N[C@@H](CCC(=O)O)C(=O)N1CCC[C@H]1C(=O)N[C@@H](CCC(=O)O)C(=O)NCC(=O)O (Phenanthrenequinone2carbonyl-REPEG-OH)
CC50 (T-cell [1]): > 30 µM | IC50 (T-cell [2]): 5 µM

N=C(N)NCCC[C@H](NC(=O)c1ccc2c(c1)C(=O)C(=O)c1ccccc1-2)C(=O)NCC(=O)N1CCC[C@H]1C(=O)N[C@@H](CCC(=O)O)C(=O)NCC(=O)O (Phenanthrenequinone2carbonyl-RGPEG-OH)
CC50 (T-cell [1]): > 30 µM | IC50 (T-cell [2]): 3.3 µM

N=C(N)NCCC[C@H](NC(=O)c1ccc2c(c1)C(=O)C(=O)c1ccccc1-2)C(=O)NCC(=O)N1CCC[C@H]1C(=O)N[C@@H](CCCNC(=N)N)C(=O)NCC(=O)O (Phenanthrenequinone2carbonyl-RGPRG-OH)
CC50 (T-cell [1]): > 30 µM | IC50 (T-cell [2]): 14 µM

N=C(N)NCCC[C@H](NC(=O)c1ccc2c(c1)C(=O)C(=O)c1ccccc1-2)C(=O)N[C@@H](CCCNC(=N)N)C(=O)N1CCC[C@H]1C(=O)N[C@@H](CCC(=O)O)C(=O)NCC(=O)O (Phenanthrenequinone2carbonyl-RRPEG-OH)
CC50 (T-cell [1]): > 30 µM | IC50 (T-cell [2]): 11 µM
